Measurements: patent publication US20110158919A1, “AROMA COMPOSITION COMPRISING O-COUMARIC ACID TO REDUCE OR SUPPRESS UNDESIRABLE TASTE IMPRESSIONS OF SWEETENERS” (SYMRISE AG, priority 2009, published 2011)
Where a name gives a salt, the structure may show the parent alone.

Columns and labels:
[1] = Solubility of homoeriodictyol salts; assay type: physicochemical; settings: in words
[2] = Stability test for OCA in a carbonated soft drink; assay type: physicochemical; settings: 5000 Lux at 37° C. for 9 days
Experimental: Test 2: Stability Test for OCA in a Carbonated Soft Drink A carbonated soft drink was prepared consisting of water, 10 ppm trans-o-coumaric acid, 350 ppm Rebaudioside A, 250 ppm sodium benzoate, 150 ppm potassium sorbate, 0.1 wt.-% of lemon/lime extract flavour and 0.15 wt.-% sodium citrate/citric acid. The latter was added to obtain a pH of 3.0±0.2. Said mixture was carbonated with 2.7 volumes of carbon dioxide. This PET-bottled drink was stressed with 5000 Lux at 37° C. for 9 days, thereby simulating a storage time (shelf life) of about 9 months at 20° C. At the end of the test the soft drink still contained 8 ppm of OCA, corresponding to an OCA-stability of 80% after a storage time of about 9 months.

| SMILES | solubility compared with pure homoeriodictyol sodium salt [1] | OCA content of the soft drink at the end of the test ([2]; 10 ppm at start, PET-bottled carbonated soft drink, pH 3.0±0.2) | OCA-stability ([2]; simulating a storage time of about 9 months at 20° C.) |
| --- | --- | --- | --- |
| COc1cc([C@@H]2CC(=O)c3c(O)cc(O)cc3O2)ccc1O [homoeriodictyol potassium salt] | better solubility | – | – |
| O=C(O)/C=C/c1ccccc1O [OCA, (E)-3-(2-hydroxyphenyl)-2-propenoic acid] | – | 8 ppm | 80% |
